{
  "source": "patent US6288033A",
  "about": "“Treatment of hepatitis B infection with thymosin alpha 1 in combination with lamivudine or in combination with lamivudine and famciclovir” (priority 1998, dated 2001)",
  "origin": "cited, not measured here",
  "key": {"[1]": {"system": "duck hepatitis B viral replication", "settings": "for HBV DNA and DNA polymerase levels: within two days of start, maintained during 21 days; for time viral replication remained suppressed after dosing had stopped: then levels returned to pre-treatment"}, "HBV [2]": {"system": "HBV", "settings": "1 microgram/ml"}, "HBV [3]": {"system": "HBV", "settings": "10 day course, 250 mg or 500 mg tid"}, "[4]": {"test": "not given", "remark": "listed apart in the source"}, "HBV [5]": {"system": "HBV"}, "HBV [6]": {"system": "HBV", "remark": "listed apart in the source"}, "anti-HBs": {"system": "anti-HBs", "settings": "previously non-reactive hemodialysis patients, after Heptavax-B vaccination"}, "HBV [7]": {"system": "HBV", "remark": "listed apart in the source"}, "[8]": {"system": "woodchuck hepatitis virus (WHV)"}, "[9]": {"settings": "up to 2 years, HIV-infected patients"}, "HBV [10]": {"system": "HBV", "settings": "chronically infected chimpanzees"}, "[11]": {"system": "HBV transfected cell lines"}, "HBV [12]": {"system": "HBV", "settings": "duck model"}, "[13]": {"settings": "North America and European patients"}},
  "note": "Read-outs that look alike come from different tables or passages of the source. No end group written: not given here.",
  "data": [
    {"molecule": "Nc1nc2c(ncn2CCC(CO)CO)c(=O)[nH]1", "note": "[penciclovir]", "values": [
      {"measurement": "penciclovir concentration in the blood, Cmax", "setting": "after a 5 mg/kg oral dose of penciclovir alone", "value": "approximately 0.14 microgram/ml"},
      {"measurement": "HBV DNA and DNA polymerase levels", "setting": "[1]; oral 20 and 100 mg/kg twice a day", "value": "undetectable levels"},
      {"measurement": "time viral replication remained suppressed after dosing had stopped", "setting": "[1]", "value": "at least two days"},
      {"measurement": "reduction in HBV DNA", "setting": "HBV [2]; day 6", "value": 50, "unit": "%"},
      {"measurement": "reduction in HBV DNA", "setting": "HBV [2]; day 9", "value": 90, "unit": "%"}
    ]},
    {"molecule": "CC(=O)OCC(CCn1cnc2cnc(N)nc21)COC(C)=O", "note": "[famciclovir, diacetyl ester of 6-deoxypenciclovir]", "values": [
      {"measurement": "penciclovir concentration in the blood, Cmax", "setting": "after a 500 mg oral famciclovir dose", "value": 21.73, "unit": "microgram/ml"},
      {"measurement": "drug-related adverse effects on clinical laboratory values, blood pressure, heart rates or ECG", "setting": "single and repeat doses up to 1000 mg three times daily for six days", "value": "no evidence of drug-related adverse effects"},
      {"measurement": "absorption", "setting": "volunteers, oral", "value": "well absorbed"},
      {"measurement": "HBV DNA and DNA polymerase levels", "setting": "[1]; oral 5 and 25 mg/kg twice a day", "value": "undetectable levels"},
      {"measurement": "time viral replication remained suppressed after dosing had stopped", "setting": "[1]", "value": "at least two days"},
      {"measurement": "evaluable patients with a greater than 90% fall in HBV DNA levels", "setting": "HBV [3]", "value": "6 of 11"},
      {"measurement": "frequency of adverse experiences and laboratory abnormalities versus placebo", "setting": "[4]; 11 double-blind and 2 open trials, more than 3000 patients", "value": "similar"},
      {"measurement": "most common adverse experiences", "setting": "[4]; human, in vivo", "value": "headache, nausea and diarrhea"},
      {"measurement": "tolerability", "setting": "HBV [5]; adverse events profile similar to placebo", "value": "well tolerated"},
      {"measurement": "HBV DNA and ALT levels", "setting": "HBV [5]; up to 500 mg three times a day for 16 weeks, preliminary data", "value": "significant reduction"}
    ]},
    {"molecule": "interferon-alpha", "values": [
      {"measurement": "of the HBeAg-clearing patients, clear HBsAg", "setting": "hepatitis B virus (HBV); Asian patients", "value": "approximately 10%"},
      {"measurement": "patients who clear HBeAg", "setting": "hepatitis B virus (HBV); Asian patients", "value": "15-20%"},
      {"measurement": "of the HBeAg-clearing patients, ultimately cleared HBsAg", "setting": "hepatitis B virus (HBV); [13]", "value": "25-65%"},
      {"measurement": "sustained clearance of hepatitis B e antigen (HBeAg), patients", "setting": "hepatitis B virus (HBV); [13]", "value": "30-40%"}
    ]},
    {"molecule": "Thymosin alpha 1 (Ac-SDAAVDTSSEITTKDLKEKKEVVEEAEN; UniProt P06454 2-29, looked up) [Tα1]", "values": [
      {"measurement": "CR (complete response), number of patients", "setting": "HBV [6]; 1.6 mg S.C. 2×/week, 6 months, n=49", "value": 7, "unit": "patients"},
      {"measurement": "CR (%)", "setting": "HBV [6]; 1.6 mg S.C. 2×/week, 6 months, n=49, p 0.084", "value": 14, "unit": "%"},
      {"measurement": "patients with sustained loss of HBV DNA with negative HBeAg, number", "setting": "HBV [6]; during the 1yr study or post study follow up", "value": 12, "unit": "patients"},
      {"measurement": "patients with sustained loss of HBV DNA with negative HBeAg", "setting": "HBV [6]; during the 1yr study or post study follow up, p<0.11 vs placebo", "value": 25, "unit": "%"},
      {"measurement": "DR (%)", "setting": "HBV [6]; n=49", "value": 10, "unit": "%"},
      {"measurement": "DR (delayed response), number of patients", "setting": "HBV [6]; n=49", "value": 5, "unit": "patients"},
      {"measurement": "IR (%)", "setting": "HBV [6]; n=49", "value": 0, "unit": "%"},
      {"measurement": "IR (incomplete response), number of patients", "setting": "HBV [6]; n=49", "value": 0, "unit": "patients"},
      {"measurement": "in vivo production of anti-HBs", "setting": "anti-HBs", "value": "enhance"},
      {"measurement": "serum aminotransferase levels", "setting": "HBV [7]; conclusion of the study (1 year), 12 patients received TF5 or Tα1 twice weekly for six months", "value": "improved significantly"},
      {"measurement": "peripheral blood lymphocyte, CD3 and CD4 counts, in vitro production of interferon-gamma over initial values", "setting": "HBV [7]; in responders to therapy", "value": "significant improvements"},
      {"measurement": "side effects", "setting": "HBV [7]; in vivo", "value": "No side effects were observed"},
      {"measurement": "patients who cleared serum HBV DNA, number", "setting": "HBV [7]; of 12 treated patients, 1 year", "value": "Nine"},
      {"measurement": "patients who cleared serum HBV DNA", "setting": "HBV [7]; of 12 treated patients, 1 year, p<0.004 vs placebo", "value": 75, "unit": "%"},
      {"measurement": "responders with sustained remission (normal ALT, negative serum HBV DNA by PCR and HBeAg)", "setting": "HBV [7]; of the responders", "value": "About 78%"},
      {"measurement": "safety and efficacy in clearing HBV DNA", "setting": "HBV [7]; phase II studies, 1.45 to 1.75 mg (adults) per twice-weekly injection", "value": "safe and effective in clearing HBV DNA from the blood"},
      {"measurement": "treated animals with undetectable WHV DNA levels", "setting": "[8]; 10 μg/Kg s.c. twice weekly, 28 weeks, 6 treated animals, end of treatment", "value": 4, "unit": "animals"},
      {"measurement": "decrease in liver levels of WHV DNA replication intermediates", "setting": "[8]; liver biopsy, the 4 animals with undetectable serum WHV DNA", "value": "50 to 300", "unit": "fold"},
      {"measurement": "change in liver levels of WHV DNA replication intermediates", "setting": "[8]; liver biopsy, the other 2 animals", "value": "only a small change from the pretreatment levels"},
      {"measurement": "depression of WHV DNA levels", "setting": "[8]; remaining 2 treated animals, end of treatment", "value": 100, "unit": "fold"}
    ]},
    {"molecule": "Nc1ccn([C@@H]2CS[C@H](CO)O2)c(=O)n1", "note": "[lamivudine, 2'3'-dideoxy-3'thiacytidine]", "values": [
      {"measurement": "toxicity", "setting": "[9]", "value": "without significant toxicity"},
      {"measurement": "antiviral activity", "setting": "HBV [10]", "value": "has been shown"},
      {"measurement": "antiviral activity", "setting": "[11]", "value": "has been shown"},
      {"measurement": "antiviral activity", "setting": "HBV [12]", "value": "has been shown"}
    ]}
  ]
}
